Laboratory results from the NIST ThermoML archive (doi:10.1016/j.jct.2015.12.028).

Conditions: Liquid, light scattering

CCCCCC(=O)OCC [ethyl hexanoate]
Conditions	speed of sound [m/s]
291.92 K, 7170 kPa	1273.2
292.04 K, 8640 kPa	1284
292.14 K, 10010 kPa	1290.3
293.41 K, 5690 kPa	1255
293.44 K, 4180 kPa	1247.7
294.64 K, 100 kPa	1224.2
294.64 K, 1100 kPa	1230.1
294.84 K, 2620 kPa	1239
301.5 K, 2670 kPa	1205.7
301.55 K, 1070 kPa	1195.5
301.56 K, 4130 kPa	1214.4
301.58 K, 7090 kPa	1236.9
301.6 K, 5650 kPa	1225.7
301.63 K, 8670 kPa	1245.9
301.73 K, 10030 kPa	1258.6
302.55 K, 100 kPa	1189.8
313.14 K, 9980 kPa	1220.5
313.24 K, 4030 kPa	1185
313.24 K, 8510 kPa	1215.6
313.25 K, 7000 kPa	1205.4
313.26 K, 5550 kPa	1196.2
313.28 K, 2510 kPa	1175.2
313.3 K, 100 kPa	1155.3
313.3 K, 1020 kPa	1160.8
323.18 K, 10000 kPa	1187.7
323.28 K, 8470 kPa	1179.1
323.31 K, 2480 kPa	1142.4
323.31 K, 4010 kPa	1149.9
323.33 K, 6950 kPa	1170
323.35 K, 5480 kPa	1162
323.36 K, 100 kPa	1120.8
323.36 K, 1020 kPa	1128.5
332.94 K, 8560 kPa	1145.7
332.97 K, 6950 kPa	1135.6
332.97 K, 10050 kPa	1156.4
332.99 K, 100 kPa	1086.3
332.99 K, 1060 kPa	1090.1
333.01 K, 2560 kPa	1105.9
333.04 K, 5580 kPa	1125.1
333.07 K, 4030 kPa	1115.9
342.65 K, 2510 kPa	1072.2
342.67 K, 100 kPa	1051.7
342.67 K, 1000 kPa	1054.8
342.69 K, 3940 kPa	1082.2
342.71 K, 5500 kPa	1094.5
342.72 K, 8500 kPa	1109.7
342.74 K, 7030 kPa	1099.1
342.82 K, 9990 kPa	1124.8
352.33 K, 100 kPa	1017.1
352.33 K, 1100 kPa	1023
352.33 K, 2540 kPa	1038.4
352.35 K, 4000 kPa	1050.4
352.41 K, 5530 kPa	1061
352.42 K, 7020 kPa	1068.2
352.43 K, 8490 kPa	1080.4
352.73 K, 10060 kPa	1093.6
362.56 K, 100 kPa	982.46
362.56 K, 1000 kPa	987.04
362.56 K, 4010 kPa	1015.1
362.58 K, 8530 kPa	1045.7
362.6 K, 7060 kPa	1033.4
362.62 K, 5540 kPa	1026
362.64 K, 2530 kPa	1000.9
362.68 K, 10100 kPa	1061.2
372.53 K, 2500 kPa	968.37
372.54 K, 100 kPa	947.78
372.54 K, 1040 kPa	952.55
372.55 K, 7020 kPa	1007.7
372.56 K, 8530 kPa	1016.3
372.57 K, 5560 kPa	998.43
372.59 K, 4050 kPa	985.39
372.86 K, 9900 kPa	1029.5
382.71 K, 8540 kPa	980
382.73 K, 7020 kPa	971.25
382.74 K, 100 kPa	913.07
382.74 K, 1000 kPa	922.72
382.74 K, 5540 kPa	962.72
382.75 K, 4010 kPa	952.21
382.76 K, 2560 kPa	934.6
382.91 K, 9900 kPa	997.44
392.4 K, 5520 kPa	933.47
392.41 K, 7010 kPa	940.67
392.42 K, 8480 kPa	949.6
392.47 K, 100 kPa	878.33
392.47 K, 1030 kPa	884.09
392.47 K, 4000 kPa	919.08
392.51 K, 2490 kPa	902.62
392.92 K, 9950 kPa	966.97
402 K, 6970 kPa	908.77
402.03 K, 100 kPa	843.55
402.03 K, 1040 kPa	854.91
402.06 K, 2470 kPa	868.02
402.06 K, 4030 kPa	883.34
402.08 K, 8510 kPa	919.03
402.1 K, 5510 kPa	899.47
402.68 K, 10070 kPa	936.79
412.72 K, 100 kPa	808.74
412.72 K, 1040 kPa	815.66
412.8 K, 2570 kPa	833.03
412.88 K, 5600 kPa	865.88
412.88 K, 7020 kPa	871.35
412.89 K, 8470 kPa	886.33
412.91 K, 4020 kPa	848.61
412.99 K, 10030 kPa	903.23
423.69 K, 9950 kPa	868.97
423.99 K, 8470 kPa	850.59
424.01 K, 6980 kPa	840.66
424.04 K, 5530 kPa	826.28
424.11 K, 2540 kPa	796.64
424.11 K, 4010 kPa	811.39
424.14 K, 100 kPa	773.9
424.14 K, 1010 kPa	774.99
432.74 K, 8510 kPa	826.01
432.77 K, 7030 kPa	813.37
432.78 K, 5380 kPa	798.35
432.84 K, 9890 kPa	842.12
432.92 K, 3990 kPa	780.75
433.17 K, 100 kPa	739.02
433.17 K, 1030 kPa	746.97
433.17 K, 2510 kPa	762.64
442.85 K, 5610 kPa	765.41
442.88 K, 4100 kPa	748.87
442.9 K, 930 kPa	715.97
442.9 K, 2480 kPa	729.4
442.91 K, 6990 kPa	777.33
442.92 K, 8480 kPa	791.24
452.58 K, 5540 kPa	735.89
452.61 K, 7110 kPa	747.91
452.63 K, 8380 kPa	764.36
452.65 K, 4080 kPa	717.86
452.91 K, 2540 kPa	695.59
452.92 K, 1040 kPa	677.79
452.93 K, 10000 kPa	781.61
462.7 K, 7080 kPa	715.1
462.71 K, 4130 kPa	682.75
462.71 K, 8400 kPa	730.25
462.72 K, 5530 kPa	700.28
462.73 K, 2510 kPa	660.98
462.91 K, 10060 kPa	751.22
462.97 K, 960 kPa	644.49
471.93 K, 7050 kPa	686.17
471.94 K, 5520 kPa	670.94
471.95 K, 8260 kPa	703.27
472.03 K, 3960 kPa	653.08
472.05 K, 10050 kPa	723.5
472.29 K, 2600 kPa	630.72
472.41 K, 950 kPa	612.74

Conditions	speed of sound [m/s]
294.37 K	1220.1
301.55 K	1191
313.34 K	1152.7
324.26 K	1115.1
333.16 K	1077.6
343.2 K	1046.1
353.08 K	1010
363.12 K	975
373.14 K	942
383.76 K	905.4
393.3 K	870.1
402.64 K	834.9
413.59 K	800.8
423.96 K	764
433.99 K	730.3
443.55 K	697.6
452.9 K	661
463.1 K	628.8
473.82 K	592.4
